Results on one substance are retold here after US20090306221A1, “Use for Cannabinoid” (GW PHARMA LIMITED, priority 2006, published 2009).

This test deals with human cannabinoid CB2 receptors (Homo sapiens, UniProt P34972). Description: [35S]GTPγS binding assay, hCB2-transfected CHO cell membranes. The settings on record: stimulation of [35S]GTPγS binding. A general note: GTPγS is a poorly hydrolysed GTP analogue; its binding reports G protein activation.
human cannabinoid CB2 receptors, sequence (P34972 whole entry): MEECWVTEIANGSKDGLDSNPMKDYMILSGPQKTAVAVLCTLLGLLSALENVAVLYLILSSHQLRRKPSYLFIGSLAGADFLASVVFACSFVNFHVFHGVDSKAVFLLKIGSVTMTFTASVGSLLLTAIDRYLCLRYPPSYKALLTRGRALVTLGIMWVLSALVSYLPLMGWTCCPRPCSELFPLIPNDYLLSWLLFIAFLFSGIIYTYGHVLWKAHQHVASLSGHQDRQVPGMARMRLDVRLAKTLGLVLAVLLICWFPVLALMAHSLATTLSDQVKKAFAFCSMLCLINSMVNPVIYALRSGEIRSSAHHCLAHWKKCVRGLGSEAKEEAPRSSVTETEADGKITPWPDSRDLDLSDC

Procedure: CHO cells were stably transfected with cDNA encoding human cannabinoid CB2 receptors and were maintained at 37° C. and 5% CO2 in Dulbecco's Modified Eagle's Medium nutrient mixture.
The assays were carried out with GTPγS binding buffer (50 mM Tris-HCl; 50 mM Tris-Base; 5 mM MgCl2; 1 mM EDTA; 100 mM NaCl; 1 mM DTT; 0.1% BSA) in the presence of [^35S]GTPγS and GDP, in a final volume of 500 μl. Binding was initiated by the addition of [^35S]GTPγS to the tubes. The drugs were incubated in the assay for 60 min at 30° C. The reaction was terminated by a rapid vacuum filtration method using Tris buffer (50 mM Tris-HCl; 50 mM Tris-Base; 0.1% BSA), as described previously, and the radioactivity was quantified by liquid scintillation spectrometry.
The agonism of the CB1 or CB2 receptors by CP55940 results in a response in the cell. This response is the binding of [^35S]GTPγS to the cell membrane.
Changes in the response in the presence of the test compound can be measured in order to determine whether the compound is acting as an agonist, a neutral antagonist or an inverse agonist.

As for SR144528, the “shift in the log-concentration response curve of CP55940” value is “downward and rightward shift”.
